Consider three compounds from patent US20090136472A1, “Use of thiazole derivatives and analogues in disorders caused by free fatty acids” (priority 2005, published 2009).

Experiment [1] relates to MDA-MB-231 cells. Description: Test A cell proliferation assay (FFA/linolenic acid-stimulated, cell cycle analysis by flow cytometry). Type of experiment: cell-based, human. The following applies: 24 hours; for inhibition at 10 µM: Homo sapiens, at a concentration of 10 μM, cells in S-phase, read-out: percentage antagonist activity (inhibition of FFA induced cell proliferation); for inhibition at 10 µM / antagonism of free fatty acid stimulated cell proliferation: linolenic acid-stimulated MDA-MB-231 cells; for antagonism of free fatty acid stimulated cell proliferation: S-phase by propidium iodine staining. On the procedure: Cytomics™ FC500 Flow Cytometer with CXP software (Beckman Coulter) MDA-MB-231 cells MDA-MB-231 cells were cultured in the propagation media D-MEM+1000 mg/L Glucose+GlutaMAX™ 1+Pyruvate supplemented with 10% V/V Foetal Bovine Serum and PEST (100 U/ml penicillin, 100 μg/mL streptomycin). Cells were seeded in 6 well plates to a density of 300000 cells/well in propagation media. After 24 hours, media was replaced with serum free D-MEM media.
Linolenic acid was diluted in DMSO to a concentration of 100 mM and added to the culture media to a final concentration of 100 μM.
Compounds were as dissolved in DMSO to a concentrations of 10 mM (Compounds of Examples 95 and 6 (Compound X and Compound Y, respectively)) and 40 mM (Compound of Example 4 (Compound Z)) and added to the culture media to a final concentration of 10 μM (X and Y) and 40 μM (Z) respectively.
After 24 hours in serum free media DMEM, linolenic acid (to a final concentration of […]) and compounds to be screened for activity were added to a final concentration of 10 μM (Compounds X and Y) and 40 μM (Compound Z) respectively. Final DMSO concentration was kept at 0.2% in all wells. After 24 hours of stimulation, cells were harvested and propidium iodine stained using a CyStain PI absolute T Kit according to manufacturer's recommendations. Cells were subsequently analyzed using a Cytomics™ FC500 Flow Cytometer with CXP software (Beckman Coulter) for cell cycle distribution. Cells were incubated with or without linolenic acid (LA) and the Compounds X, Y and Z for 24 hours at indicated concentrations. Cells in S-phase from untreated sample were set to 100% in each experiment.

Experiment [2] deals with Ob/Ob mice. Description: Test B insulin measurement study in diabetic Ob/Ob mice. It is filed as in vivo. The following applies: 1 mg/kg intraperitoneally once daily for 2 weeks. On the procedure:
Ultra sensitive rat insulin ELISA kit (Crystal Chen inc) according to manufacturer's recommendations.
Serum insulin measurements on 4 hour fasted 8-9 week old Ob/Ob mice (Taconic) were performed. Mice were distributed to a vehicle control group (VC) or a Compound Z treatment group, so that mean s-insulin was equal between the groups. 1 mg/kg bodyweight of Compound Z in PBS/1% v/v DMSO and VC groups were injected intraperitoneally once daily for 2 weeks, after which 4 hour fasted serum insulin levels were measured as described above.

Regarding `O=C1NC(=Nc2ccccn2)SC1Cc1ccc(F)cc1` (centres unmarked) [Compound X, 5-(4-Fluorobenzyl)-2-(pyridin-2-ylimino)thiazolidin-4-one], the “effect on the basal proliferation of MDA-MB-231 cells” value in experiment [1] (Compound X 10 μM without linolenic acid) is given as “did not exhibit any detectable effect”. For the same compound, in experiment [1], the inhibition at 10 µM was found to be 70% and the “antagonism of free fatty acid stimulated cell proliferation” value was “able to antagonize free fatty acid stimulated cell proliferation”.
Regarding `O=C1NC(=Nc2ccc(Cl)cc2)SC1Cc1cccc(C(F)(F)F)c1` (centres unmarked) [Compound Y, 5-(3-(Trifluoromethyl)benzyl)-2-(4-chlorophenylimino)thiazolidin-4-one], in experiment [1], the inhibition at 10 µM came out at 100% and the “antagonism of free fatty acid stimulated cell proliferation” value is listed as “able to antagonize free fatty acid stimulated cell proliferation”.
As to `Cc1ccc(N=C2NC(=O)C(Cc3cccc(C(F)(F)F)c3)S2)cc1` (centres unmarked) [Compound Z, 5-(3-(Trifluoromethyl)benzyl)-2-(p-tolylimino)thiazolidin-4-one], in experiment [1], the inhibition at 10 µM turned out to be 50% and the “antagonism of free fatty acid stimulated cell proliferation” value is given as “able to antagonize free fatty acid stimulated cell proliferation”. For the same compound, the “hyperinsulinemia (4 hour fasted serum insulin level)” value in experiment [2] is reported as “attenuated hyperinsulinemia”.
